ChEMBL document CHEMBL1147623, “Interference of the galactose-dependent binding of lectins by novel pentapeptide ligands” (Bioorg Med Chem Lett, 2004)

Experiments:
[1] = Inhibition of CG-14 binding was determined in solid phase assay; parameters: species or system Gallus gallus
[2] = Inhibition of galectin-1 binding was determined in solid phase assay

IC50 [1] | IC50 [2] | Structure (SMILES)
6.9 mM | 8 mM | CC(C)C[C@H](NC(=O)[C@H](Cc1ccc(O)cc1)NC(=O)[C@@H](CC(=O)O)NC(=O)COCC(=O)NCCCOCCOCCOCCCN)C(=O)N[C@@H](Cc1ccc(O)cc1)C(=O)N[C@@H](Cc1ccccc1)C(N)=O
7.5 mM | 5.2 mM | CC(O)[C@@H](NC(=O)COCC(=O)NCCCOCCOCCOCCCN)C(=O)N[C@@H](Cc1ccc(O)cc1)C(=O)N[C@H](CC(=O)O)C(=O)N[C@@H](Cc1ccc(O)cc1)C(=O)N[C@@H](Cc1ccccc1)C(N)=O (some centres undefined)
